Experimental data as given in patent US11814352B2, “Salts formed by 2-(1-acyloxy-n-pentyl) benzoic acid and basic amino acid or aminoguanidine, and preparation method and application thereof” (JIANGSU KANION PHARMACEUTICAL CO., LTD., priority 2018, dated 2023).
Values joined by “and” are separate entries in the source; they are usually repeats but may differ in a detail not shown here. Equal entries are not always repeated. Structures can show the parent of a compound that is named as a salt. Where two headings read alike, the source gives them in different places.

Assays:
[1] = tested on: ADP induced platelet aggregation; assay: In vitro anti-platelet aggregation, ADP induced (turbidimetry, PRP); format: cell-based, rabbits
Procedure: (§1) The animals were used for experiments after 1 week.
(§2) The common carotid artery was separated, and a polyethylene tube was inserted into the common carotid artery to collect blood. […] The upper beige suspension was pipetted to obtain the platelet-rich plasma (PRP). […] The PRP was adjusted with the PPP to make the platelet count at 1×10^8/mL.
(§3) 260 μL of platelet-rich plasma (PRP) was added into a turbidimetric tube. Then 10 μL of test compounds with different concentrations, positive control drugs or normal saline were separately added, and the plasma was incubated at 37° C. for 5 min. Then 30 μL of inducers were added in sequence. The final concentration of an inducer ADP is 10 μM, and the final concentration of an inducer AA is 1 mM. […] Inhibition rate of platelet aggregation (IRPA)=(platelet aggregation rate of the control group−platelet aggregation rate of the experimental group)/platelet aggregation rate of the control group×100%.

MCAO rats = assay: Cerebral infarction, cerebral edema and nerve function of rats with focal cerebral ischemia (MCAO); format: in vivo, SD rats
Procedure: The total number of the animals was 88.
Sham operation group: equal volume of normal saline (containing 1% DMSO) (iv. 3 days), TTC, cerebral edema and neurological function score (n=8); […]
The middle cerebral arteries of the rats were blocked by a suture-occluded method, and reperfused after 2 h. […] All drugs were formulated into normal saline solutions containing 1% DMSO for administration, and the duration of administration was controlled at approximately 1 min. […] 2 h after the last administration, the neurological defect scores were firstly obtained, and then the rats of each group were sacrificed. The whole brains were taken out and weighed (wet weight), TTC stained, and dried to determine the effects of the compounds on cerebral infarction and cerebral edema.
2 h after the last administration, the neurological defects of the animals were graded and scored by the Longa's method.
After the neurobehavioral examination was completed, four coronal incisions were made on the whole brains of the rats on the optic chiasma and 2 mm anteroposterior positions of the optic chiasma. After the whole brains were cut into five slices, the brain slices were quickly placed in 5 ml of phosphate buffer solution containing 2% TTC, and incubated at 37° C. in the dark. In the incubation process, the brain slices were turned once every 5 min. After 10 min of incubation, the brain slices were taken out and pictures were taken with a digital camera (Olympus C-4000, Japan).
The calculation formula of brain water content is as follows: Water content of brain tissue (%)=(wet weight of brain tissue−dry weight of brain tissue)/wet weight of brain tissue×100%; Cerebral edema rate (%)=water content of brain tissue of each group (%)−water content of brain tissue of sham operation group (%)/water content of brain tissue of sham operation group (%)×100%; Inhibition rate of cerebral edema (%)=(rate of cerebral edema of model group (%)−rate of cerebral edema of administration group (%))/rate of cerebral edema of model group (%)×100%.

[2] = tested on: AA induced platelet aggregation; assay: In vitro anti-platelet aggregation, AA induced (turbidimetry, PRP); format: cell-based, rabbits
Procedure: as §1, §2, §3

[3] = literature value; cited from earlier work
[4] = tested on: arteriovenous bypass thrombosis in rats; assay: Effect on arteriovenous bypass thrombosis in rats; format: in vivo, SD rats; settings: 10 mg/kg/day tail vein 7 days; for Dry weight of thrombus / Wet weight of thrombus: 2 h after last dose; for inhibition at 10 mg/kg/day: Rattus norvegicus, 168 h
Procedure: Male SD rats, weighing 250-280 g, purchased from Beijing Vital River Laboratory Animal Technology Co., Ltd., raised in an SPF breeding environment with indoor temperature controlled at 23±2° C., and allowed to freely eat and drink. The total number of the animals is 64.
Model group: injected with the same volume of normal saline (containing 1% DMSO) through the tail vein, and administered continuously for 7 days. The test was started 2 h after the last dose (n=8).
The dose of all drugs was 10 mg/kg/day. The drugs were formulated into normal saline solutions containing 1% DMSO, and injected through the tail vein for 7 consecutive days. The test was started 2 hours after the last dose (n=8).
The rats were intraperitoneally injected with a 3% pentobarbital sodium solution (30 mg/kg). After anesthesia, the rats were immobilized in the supine position, and a median cervical incision was made to separate the right common carotid artery and left external jugular vein. A 6 cm long suture was put in the middle of a polyethylene tube (the suture needs to be weighed before being put in the tube), and the polyethylene tube was filled with heparin saline (50 U/mL). The polyethylene tube was inserted into the separated blood vessels to make the artery and vein form a loop. After 15 min of circulation of the blood flow, the suture was taken out, and the suture with thrombus was collected and weighed immediately. Then, after the suture was dried at room temperature for 24 h, the dry weight was determined. The total weight minus the weight of the suture was the wet weight of the thrombus, and the dry weight minus the weight of the suture was the dry weight of the thrombus.

[5] = Solubility test (saturated solubility in water); format: physicochemical; settings: 25±2° C.
Procedure: Test method: 10 mg of a test sample (solid was ground into fine powder) was weighed and added to a certain amount of solvent at 25±2° C. (the temperature of a water bath is controlled at 25° C.), and the solution was shaken vigorously for 30 s every 5 min. The dissolution was observed within 30 min. When there were no visible solute particles or droplets, the test sample was regarded as completely dissolved.

[6] = Pharmacokinetics of metabolites in rat plasma after intravenous injection of I1s; format: in vivo, SD male rats; settings: metabolite in rat plasma after I1s 25 mg/kg tail vein, rats 1-3
Procedure: (§4) 12 clean SD male rats, provided by Qinglongshan Animal Breeding Farm in Jiangning District, Nanjing. The production license number is SCXK (Jiangsu) 2017-0001. The body weight of the rats ranges from 180 to 220 g. The rats were used after being raised in the laboratory of an experimental animal center for 2 days after purchase, fasted for 12 hours before administration and 6 hours after administration, and were allowed to freely drink during the test period.
(§5) The concentration of the original drugs and metabolites in the rat blood were determined by LC-MS/MS, and WinNonlin pharmacokinetics professional software and a statistical moment method were used for calculation to obtain the corresponding pharmacokinetic parameters.

[7] = Concentration of metabolites in rat brain tissue after intravenous injection of I1s; format: in vivo; settings: for Passage through the blood-brain barrier: detected in rat brain tissue after iv I1s; for concentration at 6 h: male, Sprague-Dawley, rat, brain, iv, 25 mg/kg, read-out: Concentration in brain tissue (single rats)
Procedure: as §4, §5

[8] = tested on: bleeding time in mice after tail cutting; assay: Effect on bleeding time in mice after tail cutting; format: in vivo, Kunming mice; settings: 5 mg/kg orally once a day for 14 days, 1 h after last dose
Procedure: SPF Kunming mice, weighing 18-22 g, purchased from Beijing Vital River Laboratory Animal Technology Co., Ltd., having a certificate number of SCXK (Beijing) 2010-0002, raised in an SPF animal room with indoor temperature controlled at 23±2° C., and allowed to freely eat and drink. The day and night time was 12 h/12 h.
The administration dose level of the positive drug groups and the test drug groups was 5 mg/kg, and the same amount of normal saline was given to the negative control group. All mice were administered for 14 consecutive days orally once a day. One hour after the last dose, the mice were anesthetized with 1-2% isoflurane, and the tails were cut for 5 mm. The tips of the tails were absorbed dry with filter paper every 30 seconds until the bleeding stopped naturally. Bleeding time is defined as the interval between the start and stop of bleeding.

[9] = Concentration of metabolites in rat brain tissue after intravenous injection of I1s; format: in vivo; settings: male, Sprague-Dawley, rat, brain, iv, 25 mg/kg; for concentration at 0.5 h: 0.5 h after intravenous injection of I1s; for concentration at 1 h: 1 h after intravenous injection of I1s
[10] = read-out: IC50 ADP (10 μM), rabbit PRP, inducer ADP 10 μM, 37° C.
[11] = iv 2 h after the beginning of reperfusion, 5 mg/kg
[12] = iv at the beginning of reperfusion, 5 mg/kg
[13] = read-out: IC50 AA (1 mM), rabbit PRP, inducer AA 1 mM, 37° C.
[14] = MCAO rats, 10 mg/kg/day iv 3 days (combinations equimolar), first dose 2 h after reperfusion
[15] = Oryctolagus cuniculus, Platelet, read-out: IC50 ADP (10 μM), rabbit PRP, inducer ADP 10 μM, 37° C.
[16] = male, Sprague-Dawley, rat, plasma, iv, 25 mg/kg
[17] = male, Sprague-Dawley, rat, plasma, iv, 25 mg/kg, read-out: AUC(0-t)
[18] = male, Sprague-Dawley, rat, plasma, iv, 25 mg/kg, read-out: Cmax
[19] = 6 h after intravenous injection of I1s
[20] = read-out: Concentration in brain tissue (single rats)
[21] = read-out: Concentration in brain tissue, Mean

CCCCC(OC(=O)CC)c1ccccc1C(=O)O (racemic) (as salt: salt) [I2, L-Arginine (R/S)-2-(1-Propionyloxy-n-Pentyl) Benzoate]
melting point: 169 to 171 °C

CCCCC(OC(=O)CCC)c1ccccc1C(=O)O (racemic) (as salt: salt) [I3, L-Arginine (R/S)-2-(1-N-Butyryloxy-n-Pentyl) Benzoate]
melting point: 152 to 153 °C

CCCCC1OC(=O)c2ccccc21 (racemic) [(R/S)-NBP, racemic (R/S)-3-N-butyl-1(3H)-isobenzofuranone]
IC50 [1, 10]: 1360 ± 130 µM
Cerebral edema (MCAO rats; [11]): 6.72 ± 4.05%
Infarct volume (MCAO rats; [11]): 36.50 ± 7.58%
Inhibition rate of cerebral edema (MCAO rats; [11]): 28.80%
Inhibition rate of infarct volume (MCAO rats; [11]): 26.43%
Cerebral edema (MCAO rats; [12]): 5.80 ± 1.83%
Infarct volume (MCAO rats; [12]): 28.55 ± 8.25%
Inhibition rate of cerebral edema (MCAO rats; [12]): 40.21%
Inhibition rate of infarct volume (MCAO rats; [12]): 41.96%
IC50 [2, 13]: 600 ± 70 µM
half-life [3]: 44 min

CCCCC(O)c1ccccc1C(=O)[O-].[K+] (racemic) [PHPB, Potassium (R/S)-2-(1-hydroxy-n-pentyl) benzoate]
Dry weight of thrombus [4]: 8.90 ± 0.45
Wet weight of thrombus [4]: 30.64 ± 10.21
Inhibition rate (dry weight of thrombus) ([4]; vs model group): 11.32%
Inhibition rate (wet weight of thrombus) ([4]; vs model group): 15.39%
IC50 [1, 10]: 960 ± 70 µM
Cerebral edema (MCAO rats; [14]): 10.71 ± 3.55%
Infarct volume (MCAO rats; [14]): 20.23 ± 3.02%
Inhibition rate of cerebral edema (MCAO rats; [14]): 33.23%
Inhibition rate of infarct volume (MCAO rats; [14]): 51.66%
IC50 [2, 13]: 350 ± 90 µM
Saturated solubility in H2O, Mean [5]: 147.07 mg/mL
Saturated solubility in H2O, dissolved sample amount (single determinations) [5]: 148.30 mg/mL and 148.04 mg/mL and 145.97 mg/mL and 145.98 mg/mL
half-life [3]: 45 min

CCCC[C@H](OC(C)=O)c1ccccc1C(=O)O [(S)-APB, (S)-2-(1-acetoxy-n-pentyl)benzoic acid]
IC50 [1, 15]: 790 ± 80 µM
IC50 [2, 13]: 430 ± 50 µM
half-life ([6]; male, Sprague-Dawley, rat, plasma, intravenous, 25 mg/kg): ~180 min
AUC(0-inf) [6, 16]: 31800 ng·h/mL
clearance [6, 16]: 13.1 mL/min/kg
half-life [6, 16]: 163 min
AUC(0-t) [6, 17]: 31700 ng·h/mL
Cmax [6, 18]: 51400 ng/mL
AUC(0-t) ([6]; listed as M2): 28614.9 ng·h/mL and 28503.7 ng·h/mL
AUC(0-∞) ([6]; listed as M2): 28748.5 ng·h/mL and 28703.5 ng·h/mL
Cl ([6]; listed as M2): 14.494 mL/min/kg and 14.516 mL/min/kg
Cmax ([6]; listed as M2): 53513.2 ng/mL and 52069.2 ng/mL
Vz ([6]; listed as M2): 4184.2 mL/kg and 4858.4 mL/kg
Passage through the blood-brain barrier [7]: could all pass through the blood-brain barrier
concentration at 6 h [7, 19]: 26.1 ng/g

CC(=O)Oc1ccccc1C(=O)O [Aspirin]
Dry weight of thrombus [4]: 6.06 ± 0.46
Wet weight of thrombus [4]: 21.46 ± 1.76
inhibition at 10 mg/kg/day ([4]; vs model group, read-out: Inhibition rate (dry weight of thrombus)): 39.7%
inhibition at 10 mg/kg/day ([4]; vs model group, read-out: Inhibition rate (wet weight of thrombus)): 40.7%
IC50 [1, 15]: 780 ± 50 µM
Bleeding time [8]: 22.52 ± 1.31 min
IC50 ([2]; Oryctolagus cuniculus, Platelet, read-out: IC50 AA (1 mM), rabbit PRP, inducer AA 1 mM, 37° C.): 160 ± 10 µM

COC(=O)[C@H](c1ccccc1Cl)N1CCc2sccc2C1 [Clopidogrel]
Bleeding time [8]: 25.28 ± 0.48 min

CCCC[C@H](O)c1ccccc1C(=O)O [M3, (S)-2-(1-hydroxy-n-pentyl)benzoic acid]
AUC(0-inf) [6, 16]: 624 ng·h/mL
clearance [6, 16]: 668 mL/min/kg
AUC(0-t) [6, 17]: 518 ng·h/mL
Cmax [6, 18]: 737 ng/mL
AUC(0-t) [6]: 577.8 ng·h/mL and 492.6 ng·h/mL
AUC(0-∞) [6]: 673.9 ng·h/mL and 858.7 ng·h/mL
Cl [6]: 618.2922 mL/min/kg and 485.2238 mL/min/kg
Cmax [6]: 876.5 ng/mL and 569.2 ng/mL
concentration at 0.5 h [9, 20]: 76.8 ng/g
concentration at 0.5 h [9, 21]: 111 ng/g
concentration at 1 h [9, 20]: 35.5 ng/g
concentration at 1 h [9, 21]: 35.9 ng/g
concentration at 6 h [9, 19]: 31.5 ng/g
Concentration in brain tissue (single rats) ([7]; 0.5 h after intravenous injection of I1s): 118.09 ng/g and 137.01 ng/g
Concentration in brain tissue (single rats) ([7]; 1 h after intravenous injection of I1s): 39.47 ng/g and 32.78 ng/g
Concentration in brain tissue (single rats) [7, 19]: 31.33 ng/g and 32.14 ng/g
Passage through the blood-brain barrier [7]: could all pass through the blood-brain barrier
concentration at 6 h [7, 19]: 31.1 ng/g
